From US20240218022A1, “ANTI-VISTA MACROCYCLIC PEPTIDES AND COMPOSITIONS” (BRISTOL-MYERS SQUIBB COMPANY, priority 2022, published 2024)
pIC50: −log10 of the molar value. Read-outs that look alike come from different tables or passages of the source. Starred links: 1 amine or outer side, 2 acyl side, 3 side chain; linkers in the order of their positions; H or OH if unused. Positions of bridges follow the written chain, without caps; N, C: chain ends. Non-standard residues stand in square brackets, D forms with d. Residues, ends and D or L forms follow the SMILES beside them. Phe(4-CONH2) = NC(=O)c1ccc(C[C@H](N)C(=O)O)cc1; Phe(3-Br) = N[C@@H](Cc1cccc(Br)c1)C(=O)O; γGlu = O=C(O)[C@H](CCC(=O)[*:2])N[*:1]; 2Nal = N[C@@H](Cc1ccc2ccccc2c1)C(=O)O; βAsp = O=C(O)[C@H](CC(=O)[*:2])N[*:1]; NMeR = CN[C@@H](CCCNC(=N)N)C(=O)O; Ahp(2) = CCCCC[C@H](N)C(=O)O; NMeNle = CCCC[C@H](NC)C(=O)O; Tle = CC(C)(C)[C@H](N)C(=O)O; NMeV = CN[C@H](C(=O)O)C(C)C; NHexGly = CCCCCCNCC(=O)O; Nle = CCCC[C@H](N)C(=O)O; Orn = NCCC[C@H](N)C(=O)O; Aun = NCCCCCCCCCCC(=O)O; AEEA = NCCOCCOCC(=O)O

Target: T1, mouse VISTA (mVISTA) (Mus musculus, UniProt Q9D659)
T1 construct: expressed in transfected cells; host or cells: Human embryonic kidney 293T cells
T1 sequence (Q9D659 33-308): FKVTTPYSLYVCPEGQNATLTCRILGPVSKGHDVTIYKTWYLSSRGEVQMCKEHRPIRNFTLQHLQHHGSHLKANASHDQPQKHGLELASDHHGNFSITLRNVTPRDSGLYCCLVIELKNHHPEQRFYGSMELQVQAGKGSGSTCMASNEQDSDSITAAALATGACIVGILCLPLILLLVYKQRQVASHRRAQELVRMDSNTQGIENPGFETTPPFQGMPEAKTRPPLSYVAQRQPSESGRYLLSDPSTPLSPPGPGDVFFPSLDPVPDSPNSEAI
Experiment: Cell-Based Binding High-Content Assay For mVISTA (HC CBA mVISTA)
Summary of the method: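 293T cells expressing mouse VISTA, with compounds added either after seeding ("no wash") or before seeding and then washed out after 1 h. Biotinylated peptide 2 nM for 30 min at room temperature, then detection with Alexa 647–streptavidin. After fixation with Hoechst stain, plates were high-content imaged; IC50 from four-parameter logistic fit.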

[1] = 293T cells expressing mouse VISTA, competition with biotinylated peptide (2 nM), read-out: HC CBA mVISTA IC50
[2] = cell-based binding high-content assay, mVISTA, the 15th table, read-out: HC CBA mVISTA IC50
[3] = cell-based binding high-content assay, mVISTA, read-out: HC CBA miPrISTA IC50

SMILES	pIC50 (read-out: HC CBA mVISTA IC50)	other results
CCCCCCN1CC(=O)N[C@@H](Cc2ccc(O)cc2)C(=O)N[C@@H](CC(C)C)C(=O)N[C@@H](CC(N)=O)C(=O)N[C@@H](CCCNC(=N)N)C(=O)N(C)[C@@H](C(C)C)C(=O)N[C@@H](CCCCC)C(=O)N2CCC[C@H]2C(=O)N[C@@H](C(C)(C)C)C(=O)N[C@@H](CO)C(=O)N[C@H](C(=O)N[C@@H](CCC(=O)NCCCCCCCCCCC(=O)O)C(=O)O)CSCC(=O)N[C@@H](Cc2ccccc2)C(=O)N[C@@H](Cc2ccc(O)cc2)C(=O)N[C@@H](CC(=O)O)C1=O [Example 2133] ({CH2CO}-FYD[NHexGly]YLNR[NMeV][Ahp(2)]P[Tle]SC[γGlu][Aun]-OH; thioether N-14)	7.62	–
CCCCCCN1CC(=O)N[C@@H](Cc2ccc(O)cc2)C(=O)N[C@@H](CC(C)C)C(=O)NCC(=O)N[C@@H](CCCNC(=N)N)C(=O)N(C)[C@@H](CCCC)C(=O)N[C@@H](CCCCC)C(=O)N2CCC[C@H]2C(=O)N[C@@H](C(C)C)C(=O)N[C@@H](CO)C(=O)N[C@H](C(=O)NCC(=O)O)CSCC(=O)N[C@@H](Cc2ccccc2)C(=O)N[C@@H](Cc2ccc(O)cc2)C(=O)N[C@@H](CC(=O)O)C1=O [Example 1080] ({CH2CO}-FYD[NHexGly]YLGR[NMeNle][Ahp(2)]PVSCG-OH; thioether N-14)	–	pIC50 (293T cells expressing mouse VISTA, competition with biotinylated peptide (2 nM), read-out: CBA mVISTA IC50): 7.73
CCCCCCN1CC(=O)N[C@@H](Cc2ccc(O)cc2)C(=O)N[C@@H](CCCCC)C(=O)N[C@@H](CC(N)=O)C(=O)N[C@@H](CCCN)C(=O)N[C@@H](CC(C)C)C(=O)N[C@@H](CCCCC)C(=O)N2CCC[C@H]2C(=O)N[C@@H](C(C)C)C(=O)N[C@@H](CO)C(=O)N[C@H](C(=O)NCC(N)=O)CSCC(=O)N[C@@H](Cc2ccccc2)C(=O)N[C@@H](Cc2ccc(O)cc2)C(=O)N[C@@H](CC(=O)O)C1=O [Example 1036] ({CH2CO}-FYD[NHexGly]Y[Ahp(2)]N[Orn]L[Ahp(2)]PVSCG-NH2; thioether N-14)	–	pIC50 [1]: 7.70
CCCCCCN1CC(=O)N[C@@H](Cc2ccc(O)cc2)C(=O)N[C@@H](CCCC)C(=O)N[C@@H](CC(N)=O)C(=O)N[C@@H](CCCNC(=N)N)C(=O)N[C@@H](CC(C)C)C(=O)N[C@@H](CCCCC)C(=O)N2CCC[C@H]2C(=O)N[C@@H](C(C)(C)C)C(=O)N[C@@H](CC(=O)O)C(=O)N[C@H](C(=O)NCCOCCOCC(=O)N[C@@H](CCC(=O)NCCOCCOCC(=O)NCCCCCCCCCCC(=O)O)C(=O)O)CSCC(=O)N[C@@H](Cc2ccccc2)C(=O)N[C@@H](Cc2ccc(O)cc2)C(=O)N[C@@H](CC(=O)O)C1=O [compound 2233] ({CH2CO}-FYD[NHexGly]Y[Nle]NRL[Ahp(2)]P[Tle]DC[AEEA][γGlu][AEEA][Aun]-OH; thioether N-14)	7.54	–
CCCCCCN1CC(=O)N[C@@H](Cc2ccc(O)cc2)C(=O)N[C@@H](CC(C)C)C(=O)NCC(=O)N[C@@H](CCCNC(=N)N)C(=O)N[C@@H](Cc2ccc(O)cc2)C(=O)N[C@@H](CCCCC)C(=O)N2CCC[C@H]2C(=O)N[C@@H](C(C)C)C(=O)N[C@@H](CC(=O)O)C(=O)N[C@H](C(=O)NCC(=O)O)CSCC(=O)N[C@@H](Cc2ccc3ccccc3c2)C(=O)N[C@@H](Cc2c[nH]c3ccccc23)C(=O)N[C@@H](CC(=O)O)C1=O [compound 1263] ({CH2CO}-[2Nal]WD[NHexGly]YLGRY[Ahp(2)]PVDCG-OH; thioether N-14)	–	pIC50 [2]: 7.70
CCCCCCN1CC(=O)N[C@@H](Cc2ccc(O)cc2)C(=O)N[C@@H](CC(C)C)C(=O)N[C@@H](CC(N)=O)C(=O)N[C@@H](CCCNC(=N)N)C(=O)N(C)[C@@H](CCCC)C(=O)N[C@@H](CCCCC)C(=O)N2CCC[C@H]2C(=O)N[C@@H](C(C)(C)C)C(=O)N[C@@H](CO)C(=O)N[C@H](C(=O)NCC(N)=O)CSCC(=O)N[C@@H](Cc2cccc(Br)c2)C(=O)N[C@@H](Cc2ccc(O)cc2)C(=O)N[C@@H](CC(=O)O)C1=O [compound 1225] ({CH2CO}-[Phe(3-Br)]YD[NHexGly]YLNR[NMeNle][Ahp(2)]P[Tle]SCG-NH2; thioether N-14)	7.51	–
CCCCCCN1CC(=O)N[C@@H](Cc2ccc(O)cc2)C(=O)N[C@@H](CC(C)C)C(=O)N[C@@H](CC(N)=O)C(=O)N[C@@H](CCCN)C(=O)N(C)[C@@H](CCCC)C(=O)N[C@@H](CCCCC)C(=O)N2CCC[C@H]2C(=O)N[C@@H](C(C)(C)C)C(=O)N[C@@H](CC(=O)O)C(=O)N[C@H](C(=O)N[C@@H](CC(=O)NCCOCCOCC(=O)N[C@@H](CC(=O)O)C(=O)NCCOCCOCC(=O)NCCCCCCCCCCC(=O)O)C(=O)O)CSCC(=O)N[C@@H](Cc2ccc(C(N)=O)cc2)C(=O)N[C@@H](Cc2ccc(O)cc2)C(=O)N[C@@H](CC(=O)O)C1=O [compound 2092] ({CH2CO}-[Phe(4-CONH2)]YD[NHexGly]YLN[Orn][NMeNle][Ahp(2)]P[Tle]DC[βAsp][AEEA]D[AEEA][Aun]-OH; thioether N-14)	–	pIC50 [3]: 7.80
CCCCCCN1CC(=O)N[C@@H](Cc2ccc(O)cc2)C(=O)N[C@@H](C)C(=O)N[C@@H](CC(N)=O)C(=O)N[C@@H](CCCN)C(=O)N(C)[C@@H](CCCC)C(=O)N[C@@H](CCCCC)C(=O)N2CCC[C@H]2C(=O)N[C@@H](C(C)(C)C)C(=O)N[C@@H](CC(=O)O)C(=O)N[C@H](C(=O)N[C@@H](CC(=O)NCCOCCOCC(=O)N[C@@H](CC(=O)O)C(=O)NCCOCCOCC(=O)NCCCCCCCCCCC(=O)O)C(=O)O)CSCC(=O)N[C@@H](Cc2ccccc2)C(=O)N[C@@H](Cc2c[nH]c3ccccc23)C(=O)N[C@@H](CC(=O)O)C1=O [compound 2097] ({CH2CO}-FWD[NHexGly]YAN[Orn][NMeNle][Ahp(2)]P[Tle]DC[βAsp][AEEA]D[AEEA][Aun]-OH; thioether N-14)	–	pIC50 [3]: 7.65
CCCCCCN1CC(=O)N[C@@H](Cc2ccc(O)cc2)C(=O)N[C@@H](CC(C)C)C(=O)NCC(=O)N[C@@H](CCCNC(=N)N)C(=O)N[C@@H](CC(C)C)C(=O)N[C@@H](CCCCC)C(=O)N2CCC[C@H]2C(=O)N[C@@H](C(C)C)C(=O)N[C@@H](CO)C(=O)N[C@H](C(=O)N[C@@H](CCC(=O)NCCCCCCCCCCC(=O)O)C(=O)O)CSCC(=O)N[C@@H](Cc2ccccc2)C(=O)N[C@@H](Cc2ccc(O)cc2)C(=O)N[C@@H](CC(=O)O)C1=O [Example 2128] ({CH2CO}-FYD[NHexGly]YLGRL[Ahp(2)]PVSC[γGlu][Aun]-OH; thioether N-14)	7.52	–
CCCCCCN1CC(=O)N[C@@H](Cc2ccc(O)cc2)C(=O)N[C@@H](CCCNC(=N)N)C(=O)N[C@@H](CC(N)=O)C(=O)N[C@@H](CCCNC(=N)N)C(=O)N[C@@H](CC(C)C)C(=O)N[C@@H](CCCCC)C(=O)N2CCC[C@H]2C(=O)N[C@@H](C(C)C)C(=O)N[C@@H](Cc2c[nH]c3ccccc23)C(=O)N[C@H](C(=O)NCC(=O)O)CSCC(=O)N[C@@H](Cc2ccccc2)C(=O)N[C@@H](Cc2ccc(O)cc2)C(=O)N[C@@H](CC(=O)O)C1=O [Example 1069] ({CH2CO}-FYD[NHexGly]YRNRL[Ahp(2)]PVWCG-OH; thioether N-14)	–	pIC50 [1]: 7.32
CCCCCCN1CC(=O)N[C@@H](Cc2ccc(O)cc2)C(=O)N[C@@H](CC(C)C)C(=O)N[C@@H](CC(N)=O)C(=O)N[C@@H](CCCNC(=N)N)C(=O)N(C)[C@@H](C(C)C)C(=O)N[C@@H](CCCCC)C(=O)N2CCC[C@H]2C(=O)N[C@@H](C(C)(C)C)C(=O)N[C@@H](CC(=O)O)C(=O)N[C@H](C(=O)NCCOCCOCC(=O)N[C@@H](CCC(=O)NCCOCCOCC(=O)NCCCCCCCCCCC(=O)O)C(=O)O)CSCC(=O)N[C@@H](Cc2ccccc2)C(=O)N[C@@H](Cc2ccc(O)cc2)C(=O)N[C@@H](CC(=O)O)C1=O [compound 2274] ({CH2CO}-FYD[NHexGly]YLNR[NMeV][Ahp(2)]P[Tle]DC[AEEA][γGlu][AEEA][Aun]-OH; thioether N-14)	7.73	–
CCCCCCN1CC(=O)N[C@@H](Cc2ccc(O)cc2)C(=O)N[C@@H](CCCC)C(=O)N[C@@H](CC(=O)O)C(=O)N[C@@H](CCCN)C(=O)N(C)[C@@H](CCCC)C(=O)N[C@@H](CCCCC)C(=O)N2CCC[C@H]2C(=O)N[C@@H](C(C)(C)C)C(=O)N[C@@H](CO)C(=O)N[C@H](C(=O)N[C@@H](CC(N)=O)C(=O)O)CSCC(=O)N[C@@H](Cc2ccccc2)C(=O)N[C@@H](Cc2c[nH]c3ccccc23)C(=O)N[C@@H](CC(=O)O)C1=O [Example 1401] ({CH2CO}-FWD[NHexGly]Y[Nle]D[Orn][NMeNle][Ahp(2)]P[Tle]SCN-OH; thioether N-14)	7.69	–
CCCCCCN1CC(=O)N[C@@H](Cc2ccc(O)cc2)C(=O)N[C@@H](CCCC)C(=O)N[C@@H](CC(N)=O)C(=O)N[C@@H](CCCNC(=N)N)C(=O)N(C)[C@@H](CCCNC(=N)N)C(=O)N[C@@H](CCCCC)C(=O)N2CCC[C@H]2C(=O)N[C@@H](C(C)C)C(=O)N[C@@H](CC(=O)O)C(=O)N[C@H](C(=O)NCC(=O)O)CSCC(=O)N[C@@H](Cc2ccc3ccccc3c2)C(=O)N[C@@H](Cc2c[nH]c3ccccc23)C(=O)N[C@@H](CC(=O)O)C1=O [compound 1258] ({CH2CO}-[2Nal]WD[NHexGly]Y[Nle]NR[NMeR][Ahp(2)]PVDCG-OH; thioether N-14)	–	pIC50 [2]: 7.92
CCCCCCN1CC(=O)N[C@@H](Cc2ccc(O)cc2)C(=O)N[C@@H](CC(C)C)C(=O)N[C@@H](CC(N)=O)C(=O)N[C@@H](CCCNC(=N)N)C(=O)N(C)[C@@H](CCCC)C(=O)N[C@@H](CCCCC)C(=O)N2CCC[C@H]2C(=O)N[C@@H](C(C)(C)C)C(=O)N[C@@H](C(C)C)C(=O)N[C@H](C(=O)NCCOCCOCC(=O)N[C@@H](CCC(=O)NCCOCCOCC(=O)NCCCCCCCCCCC(=O)O)C(=O)O)CSCC(=O)N[C@@H](Cc2ccccc2)C(=O)N[C@@H](Cc2c[nH]c3ccccc23)C(=O)N[C@@H](CC(=O)O)C1=O [compound 2281] ({CH2CO}-FWD[NHexGly]YLNR[NMeNle][Ahp(2)]P[Tle]VC[AEEA][γGlu][AEEA][Aun]-OH; thioether N-14)	7.50	–
